Assay results taken from US6750222B2, “Substituted phenyl derivatives” (Bayer CropScience GmbH, priority 2001, dated 2004).

Experiments:
[1] = system: Sinapis alba, Chrysanthemum segetum, Avena sativa, Stellaria media, Echinochloa crus-galli, Lolium multiflorum, Setaria spp., Abutilon theophrasti, Amaranthus …; assay: Pre-emergence effect on weeds (greenhouse pot test); assay type: in vivo, monocotyledonous and dicotyledonous weed plants; details: application rate of 2 kg and less of active substance per hectare; scored visually after 3 to 4 weeks by comparison with untreated controls
Source text: 1. Pre-Emergence Effect on Weeds
Seeds or rhizome pieces of monocotyledonous and dicotyledonous weed plants were placed in sandy loam soil in cardboard pots and covered with soil. The compounds according to the invention which were formulated in the form of wettable powders or emulsion concentrates were then applied to the surface of the soil cover in the form of aqueous suspensions or emulsions at an application rate of 600 to 800 l of water/ha (converted), in various dosages.
After the treatment, the pots were placed in a greenhouse and kept under good growth conditions for the weeds. After the test plants had emerged, the damage to the plants or the negative effect on the emergence was scored visually after a test period of 3 to 4 weeks by comparison with untreated controls. As shown by the test results, compounds according to the invention have good herbicidal pre-emergence activity against a broad spectrum of weed grasses and broad-leafed weeds.

[2] = system: Sinapis alba, Echinochloa crus-galli, Lolium multiflorum, Chrysanthemum segetum, Avena sativa, Stellaria media, Setaria spp., Abutilon theophrasti, Amaranthus …; assay: Post-emergence effect on weeds (greenhouse pot test); assay type: in vivo, monocotyledonous and dicotyledonous weeds; details: application rate of 2 kg and less of active substance per hectare; treated at three-leaf stage; scored visually after about 3 to 4 weeks by comparison with untreated controls
Description: 2. Post-Emergence Effect on Weeds
Seeds or rhizome pieces of monocotyledonous and dicotyledonous weeds were placed in sandy loam soil in plastic pots, covered with soil and grown in a greenhouse under good growth conditions. Three weeks after sowing, the test plants were treated at the three-leaf stage. The compounds according to the invention which were formulated as wettable powders or emulsion concentrates were sprayed, at various dosages, onto the green parts of the plants at an application rate of 600 to 800 l of water/ha (converted). After the test plants had remained in the greenhouse for about 3 to 4 weeks under ideal growth conditions, the effect of the preparations was scored visually by comparison with untreated controls. The agents according to the invention also have good herbicidal activity post-emergence against a broad spectrum of economically important weed grasses and broad-leafed weeds.

Compound | melting point | herbicidal activity against harmful plants pre-emergence [1] | herbicidal activity against harmful plants post-emergence [2]
Cn1nc(C(F)(F)F)cc1Oc1cc(C#N)cc(Oc2cc(C(F)(F)F)nn2C)c1 [Chemical Example 1, 3,5-Bis-(1-methyl-3-trifluoromethylpyrazol-5-yloxy)benzonitrile] | 139 °C | – | –
Cn1nc(C(F)(F)F)cc1Oc1cc(F)cc(C#N)c1 [Chemical Example 2, 3-Fluoro-5-(1-methyl-3-trifluoromethylpyrazol-5-yloxy)benzonitrile] | 84 °C | – | –
Cn1nc(C(F)(F)F)cc1Oc1cc(C#N)cc(-n2ccc(C(F)(F)F)n2)c1 [Chemical Example 5, 3-(1-Methyl-3-trifluoromethylpyrazol-5-yloxy)-5-(3-trifluoromethylpyrazol-1-yl)benzonitrile] | 116 to 117 °C | – | –
Cn1nc(C(F)(F)F)cc1Oc1cc(C#N)cc(Oc2cccc(C(F)(F)F)c2)c1 [Example 62a] | – | very good herbicidal activity | very good herbicidal activity
N#Cc1cc(Oc2cccc(C(F)(F)F)c2)cc(Oc2cccc(C(F)(F)F)c2)c1 [Example 62b] | – | very good herbicidal activity | very good herbicidal activity
N#Cc1cc(Oc2ccnc(C(F)(F)F)c2)cc(Oc2ccnc(C(F)(F)F)c2)c1 [Example 73d] | – | very good herbicidal activity | very good herbicidal activity
N#Cc1cc(Oc2csc(C(F)(F)F)c2)cc(Oc2csc(C(F)(F)F)c2)c1 [Example 74c] | – | very good herbicidal activity | very good herbicidal activity
Cn1nc(C(F)(F)F)cc1Oc1cc(C#N)cc(Oc2cc(C(F)(F)F)n(C)n2)c1 [Example 75a] | – | very good herbicidal activity | very good herbicidal activity
Cn1nc(C(F)(F)F)cc1Oc1cc(C#N)cc(Oc2cc(C(F)(F)F)nn2C)c1 [Example 76a] | – | very good herbicidal activity | very good herbicidal activity
Cn1nc(C(F)(F)F)cc1Oc1cc(Oc2cc(C(F)(F)F)nn2C)cc(C(N)=O)c1 [Example 77a] | – | very good herbicidal activity | very good herbicidal activity
Cn1nc(C(F)(F)F)cc1Oc1cc(Oc2cc(C(F)(F)F)nn2C)cc([N+](=O)[O-])c1 [Example 397a] | – | very good herbicidal activity | very good herbicidal activity
Cn1nc(C(F)(F)F)cc1Oc1cc(F)cc(C#N)c1 [Example 1136a] | – | very good herbicidal activity | very good herbicidal activity
N#Cc1cc(F)cc(Oc2csc(C(F)(F)F)c2)c1 [Example 1136c] | – | very good herbicidal activity | very good herbicidal activity
Cn1nc(C(F)(F)F)cc1Oc1cc(C#N)cc(C#N)c1 [Example 1140a] | – | very good herbicidal activity | very good herbicidal activity
N#Cc1cc(C#N)cc(Oc2csc(C(F)(F)F)c2)c1 [Example 1140c] | – | very good herbicidal activity | very good herbicidal activity
N#Cc1cc(C#N)cc(Oc2ccnc(C(F)(F)F)c2)c1 [Example 1140d] | – | very good herbicidal activity | very good herbicidal activity
Cn1nc(C(F)(F)F)cc1Oc1cc(F)cc([N+](=O)[O-])c1 [Example 1156a] | – | very good herbicidal activity | very good herbicidal activity
Cn1nc(C(F)(F)F)cc1Oc1cc(C#N)cc(-n2ccc(C(F)(F)F)n2)c1 [Example 1161a] | – | very good herbicidal activity | very good herbicidal activity
CC(C)OCCOc1cc(C#N)cc(Oc2cc(C(F)(F)F)nn2C)c1 [Example 1169a] | – | very good herbicidal activity | very good herbicidal activity
CCOCCOCCOc1cc(C#N)cc(Oc2cc(C(F)(F)F)nn2C)c1 [Example 1171a] | – | very good herbicidal activity | very good herbicidal activity
COCCCOc1cc(C#N)cc(Oc2cc(C(F)(F)F)nn2C)c1 [Example 1177a] | – | very good herbicidal activity | very good herbicidal activity
Cn1nc(C(F)(F)F)cc1Oc1cc(C#N)cc(OCC2CCCO2)c1 (stereo not shown) [Example 1180a] | – | very good herbicidal activity | very good herbicidal activity
Cn1nc(C(F)(F)F)cc1Oc1cc(C#N)cc(OCC2COC(C)(C)O2)c1 (stereo not shown) [Example 1182a] | – | very good herbicidal activity | very good herbicidal activity
